This test addresses T1, Peroxisome proliferator-activated receptor gamma (Homo sapiens, UniProt P37231).
T1 sequence (P37231 whole entry): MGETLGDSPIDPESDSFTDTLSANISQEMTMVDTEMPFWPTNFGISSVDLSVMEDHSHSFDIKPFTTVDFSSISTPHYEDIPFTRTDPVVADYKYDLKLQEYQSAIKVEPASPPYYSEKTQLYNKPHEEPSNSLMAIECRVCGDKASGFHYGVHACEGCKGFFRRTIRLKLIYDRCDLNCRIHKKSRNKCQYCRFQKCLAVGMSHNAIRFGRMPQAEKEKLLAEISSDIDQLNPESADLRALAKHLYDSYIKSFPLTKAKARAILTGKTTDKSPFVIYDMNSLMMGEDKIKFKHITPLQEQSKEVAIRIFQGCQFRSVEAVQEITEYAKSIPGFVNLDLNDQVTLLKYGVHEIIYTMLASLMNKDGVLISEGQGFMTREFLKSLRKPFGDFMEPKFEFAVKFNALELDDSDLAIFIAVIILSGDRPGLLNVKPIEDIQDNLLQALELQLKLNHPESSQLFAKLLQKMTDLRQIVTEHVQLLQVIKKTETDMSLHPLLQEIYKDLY
In words: Lanthascreen Competitive Binding Assay: The assay was performed according to manufacturer protocol. A mixture of […], 5 nM Tb-GST-antibody, 5 nM Fluormone Pan-PPAR Green, and serial dilutions of the experimental compound, beginning at 10 μM downwards, was added to wells of black 384-well low-volume plates (Greiner) to a total volume of 18 μL. All dilutions were made in TR-FRET assay buffer C. DMSO at 2% final concentration was used as a no-ligand control. Experiment was performed in triplicate, and incubated for 2 hours in the dark prior to assay read in Perkin Elmer ViewLux ultra HTS microplate reader. FRET signal was measured by excitation at 340 nm and emission at 520 nm for fluorescein and 490 nm for terbium. Fold change over DMSO was calculated using GraphPad Prism Software (La Jolla, Calif.) by calculating 520 nm/490 nm ratio. Graphs were plotted as fold change of FRET signal for compound treatment over DMSO-only control.

Molecules are shown by their SMILES.

On to `CCC(NC(=O)c1ccc2c(c1)c(C)c(C)n2Cc1ccc(-c2ccccc2C#N)cc1)c1ccccc1` (stereo unspecified), for which the IC50 was 0.00054 µM. The value for `Cc1c(C)n(Cc2ccc(-c3cccnc3)cc2)c2ccc(C(=O)N[C@@H](C)c3ccc([N+](=O)[O-])cc3)cc12` was 0.15 µM; that for `Cc1c(C)n(Cc2ccc(-c3ccccc3C(=O)O)cc2)c2ccc(C(=O)NCc3ccc(F)c(F)c3)cc12` was 0.031 µM; that for `CCC(NC(=O)c1ccc2c(c1)c(C)cn2Cc1ccc(-c2ccccc2C(=O)O)cc1)c1ccccc1` (stereo unspecified) was 0.002 µM. With `Cc1cn(Cc2ccc(-c3ccccc3C(=O)O)cc2)c2ccc(C(=O)N[C@@H](C)c3ccc([N+](=O)[O-])cc3)cc12` the figure was 0.126 µM; with `CC[C@@H](NC(=O)c1ccc2c(c1)c(C)c(C)n2Cc1ccccc1-c1cccc(C(=O)O)c1)c1ccccc1`, 0.02 µM; with `CC[C@H](NC(=O)c1ccc2c(c1)c(C)c(C)n2Cc1ccccc1-c1cccc(C(=O)O)c1)c1ccccc1`, 0.08 µM. With `CC[C@@H](NC(=O)c1ccc2c(c1)c(C)c(C)n2Cc1ccccc1-c1ccc(C(=O)O)cc1)c1ccccc1` the figure was 0.08 µM; with `CC[C@H](NC(=O)c1ccc2c(c1)c(C)c(C)n2Cc1ccccc1-c1ccc(C(=O)O)cc1)c1ccccc1`, over 1 µM; with `Cc1c(C)n(Cc2ccc(-c3ccccc3C(=O)O)cc2)c2ccc(C(=O)N[C@@H](C)c3cccc(OC(C)C)c3)cc12`, 0.019 µM.

For `Cc1c(C)n(Cc2ccc(-c3ccccc3C(=O)O)cc2)c2ccc(C(=O)N[C@@H](C)c3ccc(OC(C)(C)C)cc3)cc12`, the IC50 is 0.449 µM.

On to `Cc1c(C)n(Cc2ccc(-c3ccccc3C(=O)O)cc2)c2ccc(C(=O)N[C@@H](C)c3ccc(OC(C)C)cc3)cc12`, for which the IC50 was 0.034 µM. `Cc1c(C)n(Cc2ccc(-c3ccccc3C(=O)O)cc2)c2ccc(C(=O)N[C@@H](C)C3CCN(C(=O)NCc4ccccc4)CC3)cc12`: the IC50 is 0.805 µM. Take `Cc1c(C)n(Cc2ccc(-c3ccccc3C(=O)O)cc2)c2ccc(C(=O)N[C@H]3CCN(C(=O)OCc4ccccc4)C3)cc12`: the IC50 is 0.536 µM. With `Cc1c(C)n(Cc2ccc(-c3ccccc3C(=O)O)cc2)c2ccc(C(=O)N[C@@H](C)c3ccc(Cl)c(C(F)(F)F)c3)cc12` the figure was 0.015 µM; with `CCC(NC(=O)c1ccc2c(c1)cc(C)n2Cc1ccc(-c2ccccc2C(=O)O)cc1)c1ccccc1` (stereo unspecified), 0.002 µM.

What is called IC50 is the point on the concentration scale where inhibition reaches its midpoint.
